Measurements from US20120264735A1 (priority 2009, published 2012).

Molecular target: T1, c-Met kinase (recombinant c-Met) (Homo sapiens, UniProt P08581)
T1 construct: 0.27 nM recombinant c-Met
Test: In vitro kinase assay I (homogeneous time-resolved fluorescence tyrosine kinase assay)
Assay type: biochemical
Procedure, shortened: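 Biotinylated peptide (0.5 μM) phosphorylated by 0.2 nM recombinant c-Met with 50 μM MgATP, 60 min at room temperature, pH 7.4, 5% DMSO. EDTA stop; HTRF read with Eu-anti-phosphotyrosine antibody and streptavidin-APC. IC50 from 4-parameter logistic fit.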

T1 sequence (P08581 25-1390): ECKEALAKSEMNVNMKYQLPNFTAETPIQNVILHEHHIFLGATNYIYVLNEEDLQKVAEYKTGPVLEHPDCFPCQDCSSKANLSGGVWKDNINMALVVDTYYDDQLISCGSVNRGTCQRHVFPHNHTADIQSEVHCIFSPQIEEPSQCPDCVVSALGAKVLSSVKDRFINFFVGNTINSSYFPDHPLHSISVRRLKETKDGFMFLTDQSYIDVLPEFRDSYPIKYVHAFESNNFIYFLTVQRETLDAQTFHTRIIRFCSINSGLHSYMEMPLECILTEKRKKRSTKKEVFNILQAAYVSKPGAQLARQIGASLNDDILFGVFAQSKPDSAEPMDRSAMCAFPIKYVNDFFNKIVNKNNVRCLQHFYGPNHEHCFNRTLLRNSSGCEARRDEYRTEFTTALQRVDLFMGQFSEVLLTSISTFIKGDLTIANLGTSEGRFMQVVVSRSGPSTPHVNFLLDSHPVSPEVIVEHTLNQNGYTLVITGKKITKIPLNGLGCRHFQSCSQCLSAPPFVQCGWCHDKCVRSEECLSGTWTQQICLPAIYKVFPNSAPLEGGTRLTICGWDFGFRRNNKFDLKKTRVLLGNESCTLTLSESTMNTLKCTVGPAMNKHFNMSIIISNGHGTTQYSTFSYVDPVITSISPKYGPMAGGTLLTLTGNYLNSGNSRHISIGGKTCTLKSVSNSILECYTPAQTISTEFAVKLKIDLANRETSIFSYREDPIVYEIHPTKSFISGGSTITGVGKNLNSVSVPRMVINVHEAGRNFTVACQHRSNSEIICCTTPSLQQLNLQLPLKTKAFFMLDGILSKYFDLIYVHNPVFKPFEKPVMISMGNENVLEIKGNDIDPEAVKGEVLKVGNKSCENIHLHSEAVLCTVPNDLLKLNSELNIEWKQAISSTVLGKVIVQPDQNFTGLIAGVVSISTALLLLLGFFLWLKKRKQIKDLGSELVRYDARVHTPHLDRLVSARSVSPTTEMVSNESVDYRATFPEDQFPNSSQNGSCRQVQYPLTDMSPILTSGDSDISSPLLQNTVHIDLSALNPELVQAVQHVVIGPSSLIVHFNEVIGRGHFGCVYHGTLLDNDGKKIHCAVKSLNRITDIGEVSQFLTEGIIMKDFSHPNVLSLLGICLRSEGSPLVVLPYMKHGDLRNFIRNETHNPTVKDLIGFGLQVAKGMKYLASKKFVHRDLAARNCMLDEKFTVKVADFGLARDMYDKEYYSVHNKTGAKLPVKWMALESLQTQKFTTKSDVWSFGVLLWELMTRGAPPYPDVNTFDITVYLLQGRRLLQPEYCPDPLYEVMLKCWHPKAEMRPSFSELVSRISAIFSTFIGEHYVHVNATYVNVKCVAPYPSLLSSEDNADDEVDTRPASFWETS

| SMILES | IC50 [nM] |
| --- | --- |
| N#Cc1cccc(-n2ccc(=O)c(Cc3cccc(NC(=O)OCC4CCOCC4)c3)n2)c1 [Example 579, tetrahydro-2H-pyran-4-ylmethyl (3-{[1-(3-cyanophenyl)-4-oxo-1,4-dihydropyridazin-3-yl]methyl}phenyl)carbamate] | < 100 |
| CCCOC(=O)Nc1cccc(Cc2nn(-c3cccc(C#N)c3)ccc2=O)c1 [Example 580, propyl (3-{[1-(3-cyanophenyl)-4-oxo-1,4-dihydropyridazin-3-yl]methyl}phenyl)carbamate] | < 100 |
| N#Cc1cccc(-n2ccc(=O)c(Cc3cccc(NC(=O)OCCN4CCCC4=O)c3)n2)c1 [Example 582, 2-(2-oxopyrrolidin-1-yl)ethyl (3-{[1-(3-cyanophenyl)-4-oxo-1,4-dihydropyridazin-3-yl]methyl}phenyl)carbamate] | < 100 |
| N#Cc1cccc(-n2ccc(=O)c(Cc3cccc(NC(=O)OCCN4CCOCC4=O)c3)n2)c1 [Example 584, 2-(3-oxomorpholin-4-yl)ethyl (3-{[1-(3-cyanophenyl)-4-oxo-1,4-dihydropyridazin-3-yl]methyl}phenyl)carbamate] | < 100 |
| N#Cc1cccc(-n2ccc(=O)c(Cc3cccc(NC(=O)OCCOCC(F)(F)F)c3)n2)c1 [Example 586, 2-(2,2,2-trifluoroethoxy)ethyl (3-{[1-(3-cyanophenyl)-4-oxo-1,4-dihydropyridazin-3-yl]methyl}phenyl)carbamate] | < 100 |
| N#Cc1cccc(-n2ccc(=O)c(Cc3cccc(NC(=O)OCCn4cncn4)c3)n2)c1 [Example 587, 2-(1H-1,2,4-triazol-1-yl)ethyl (3-{[1-(3-cyanophenyl)-4-oxo-1,4-dihydropyridazin-3-yl]methyl}phenyl)carbamate] | < 100 |
| CN(C)C(=O)CCOC(=O)Nc1cccc(Cc2nn(-c3cccc(C#N)c3)ccc2=O)c1 [Example 588, 3-(dimethylamino)-3-oxopropyl (3-{[1-(3-cyanophenyl)-4-oxo-1,4-dihydropyridazin-3-yl]methyl}phenyl)carbamate] | < 100 |
| CN(C)C(=O)CCOC(=O)Nc1cccc(Cc2nn(-c3cc(F)cc(F)c3)ccc2=O)c1 [Example 589, 3-(dimethylamino)-3-oxopropyl (3-{[1-(3,5-difluorophenyl)-4-oxo-1,4-dihydropyridazin-3-yl]methyl}phenyl)carbamate] | < 100 |
| CCCOC(=O)Nc1cccc(Cc2nn(-c3cc(F)cc(F)c3)ccc2=O)c1 [Example 590, propyl (3-{[1-(3,5-difluorophenyl)-4-oxo-1,4-dihydropyridazin-3-yl]methyl}phenyl)carbamate] | < 100 |
| O=C(Nc1cccc(Cc2nn(-c3cc(F)cc(F)c3)ccc2=O)c1)OCCN1CCCC1=O [Example 592, 2-(2-oxopyrrolidin-1-yl)ethyl (3-{[1-(3,5-difluorophenyl)-4-oxo-1,4-dihydropyridazin-3-yl]methyl}phenyl)carbamate] | < 100 |
| O=C(Nc1cccc(Cc2nn(-c3cc(F)cc(F)c3)ccc2=O)c1)OCCOCC(F)(F)F [Example 595, 2-(2,2,2-trifluoroethoxy)ethyl (3-{[1-(3,5-difluorophenyl)-4-oxo-1,4-dihydropyridazin-3-yl]methyl}phenyl)carbamate] | < 100 |
| N#Cc1cccc(-n2ccc(=O)c(Cc3cccc(NC(=O)OCCN4CCS(=O)(=O)CC4)c3)n2)c1 [Example 596, 2-(1,1-dioxidothio-morpholin-4-yl)ethyl (3-{[1-(3-cyanophenyl)-4-oxo-1,4-dihydropyridazin-3-yl]methyl}phenyl)carbamate] | < 100 |
| N#Cc1cccc(-n2ccc(=O)c(Cc3cccc(NC(=O)OCCN4CCOCC4)c3)n2)c1 [Example 597, 2-morpholin-4-ylethyl (3-{[1-(3-cyanophenyl)-4-oxo-1,4-dihydropyridazin-3-yl]methyl}phenyl)carbamate] | < 100 |
| N#Cc1cccc(-n2ccc(=O)c(Cc3cccc(NC(=O)OCCC4CCOCC4)c3)n2)c1 [Example 598, 2-(tetrahydro-2H-pyran-4-yl)ethyl (3-{[1-(3-cyanophenyl)-4-oxo-1,4-dihydropyridazin-3-yl]methyl}phenyl)carbamate] | < 100 |
| COCCOCCOC(=O)Nc1cccc(Cc2nn(-c3cc(F)c(F)c(F)c3)ccc2=O)c1 [Example 599, 2-(2-methoxyethoxy)ethyl (3-{[4-oxo-1-(3,4,5-trifluorophenyl)-1,4-dihydropyridazin-3-yl]methyl}phenyl)carbamate] | < 100 |
| COCCOCCOC(=O)Nc1cccc(Cc2nn(-c3cccc(C#N)c3)ccc2=O)c1 [Example 600, 2-(2-methoxyethoxy)ethyl (3-{[1-(3-cyanophenyl)-4-oxo-1,4-dihydropyridazin-3-yl]methyl}phenyl)carbamate] | < 100 |
| COCCOCCOC(=O)Nc1cccc(Cc2nn(-c3ccc(F)c(F)c3)ccc2=O)c1 [Example 602, 2-(2-methoxyethoxy)ethyl (3-{[1-(3,4-difluorophenyl)-4-oxo-1,4-dihydropyridazin-3-yl]methyl}phenyl)carbamate] | < 100 |

| SMILES | IC50 [nM] |
| --- | --- |
| O=C1CN(CCOC(=O)Nc2cccc(Cc3nn(-c4cc(F)cc(F)c4)ccc3=O)c2)CCN1 [Example 604, 2-(3-oxopiperazin-1-yl)ethyl (3-{[1-(3,5-difluorophenyl)-4-oxo-1,4-dihydropyridazin-3-yl]methyl}phenyl)carbamate] | < 100 |
| O=C(Nc1cccc(Cc2nn(-c3cc(F)cc(F)c3)ccc2=O)c1)OCCN1CCOCC1=O [Example 605, 2-(3-oxomorpholin-4-yl)ethyl (3-{[1-(3,5-difluorophenyl)-4-oxo-1,4-dihydropyridazin-3-yl]methyl}phenyl)carbamate] | < 100 |
| O=C(Nc1cccc(Cc2nn(-c3cc(F)cc(F)c3)ccc2=O)c1)OCC1CCOCC1 [Example 606, tetrahydro-2H-pyran-4-ylmethyl (3-{[1-(3,5-difluorophenyl)-4-oxo-1,4-dihydropyridazin-3-yl]methyl}phenyl)carbamate] | < 100 |
| COCCOCCOC(=O)Nc1cccc(Cc2nn(-c3cc(F)cc(F)c3)ccc2=O)c1 [Example 608, 2-(2-methoxyethoxy)ethyl (3-{[1-(3,5-difluorophenyl)-4-oxo-1,4-dihydropyridazin-3-yl]methyl}phenyl)carbamate] | < 100 |
| Cn1cc(-n2ccc(=O)c(Cc3cccc(NC(=O)OCC4CC(C)(C)OC(C)(C)C4)c3)n2)cn1 [Example 609, (2,2,6,6-tetramethyltetra-hydro-2H-pyran-4-yl)methyl (3-{[1-(1-methyl-1H-pyrazol-4-yl)-4-oxo-1,4-dihydropyridazin-3-yl]methyl}phenyl)carbamate] | < 100 |
| Cn1cc(-n2ccc(=O)c(Cc3cccc(NC(=O)OCC4(F)CCOCC4)c3)n2)cn1 [Example 613, (4-fluorotetrahydro-2H-pyran-4-yl)methyl (3-{[1-(1-methyl-1H-pyrazol-4-yl)-4-oxo-1,4-dihydropyridazin-3-yl]methyl}phenyl)carbamate] | < 100 |
| Cn1cc(-n2ccc(=O)c(Cc3cccc(NC(=O)OCC(F)(F)CN)c3)n2)cn1 [Example 614, 3-Amino-2,2-difluoropropyl (3-{[1-(1-methyl-1H-pyrazol-4-yl)-4-oxo-1,4-dihydropyridazin-3-yl]methyl}phenyl)carbamate] | < 100 |
| Cn1cc(-n2ccc(=O)c(Cc3cccc(NC(=O)OC[C@H]4CCCN4)c3)n2)cn1 [Example 615, (2R)-pyrrolidin-2-ylmethyl (3-{[1-(1-methyl-1H-pyrazol-4-yl)-4-oxo-1,4-dihydropyridazin-3-yl]methyl}phenyl)carbamate] | 100 to 1000 |
| Cn1cc(-n2ccc(=O)c(Cc3cccc(NC(=O)OC[C@@H]4CCCN4)c3)n2)cn1 [Example 616, (2S)-pyrrolidin-2-ylmethyl (3-{[1-(1-methyl-1H-pyrazol-4-yl)-4-oxo-1,4-dihydropyridazin-3-yl]methyl}phenyl)carbamate] | 100 to 1000 |
| Cn1cc(-n2ccc(=O)c(Cc3cccc(NC(=O)OCC4CCNCC4)c3)n2)cn1 [Example 617, piperidin-4-ylmethyl (3-{[1-(1-methyl-1H-pyrazol-4-yl)-4-oxo-1,4-dihydropyridazin-3-yl]methyl}phenyl)carbamate] | < 100 |
| Cn1cc(-n2ccc(=O)c(Cc3cccc(NC(=O)OC4CCNCC4)c3)n2)cn1 [Example 618, piperidin-4-yl (3-{[1-(1-methyl-1H-pyrazol-4-yl)-4-oxo-1,4-dihydropyridazin-3-yl]methyl}phenyl)carbamate] | 100 to 1000 |
| Cn1cc(-n2ccc(=O)c(Cc3cccc(NC(=O)OCC4(F)CCNCC4)c3)n2)cn1 [Example 620, (4-fluoropiperidin-4-yl)methyl (3-{[1-(1-methyl-1H-pyrazol-4-yl)-4-oxo-1,4-dihydropyridazin-3-yl]methyl}phenyl)carbamate] | < 100 |
| CNCCOC(=O)Nc1cccc(Cc2nn(-c3cc(F)c(F)c(F)c3)ccc2=O)c1 [Example 622, 2-(methylamino)ethyl (3-{[4-oxo-1-(3,4,5-trifluorophenyl)-1,4-dihydropyridazin-3-yl]methyl}phenyl)carbamate] | < 100 |
| O=C(Nc1cccc(Cc2nn(-c3cc(F)c(F)c(F)c3)ccc2=O)c1)OCCCN1CCNCC1 [Example 623, 3-piperazin-1-ylpropyl (3-{[4-oxo-1-(3,4,5-trifluorophenyl)-1,4-dihydropyridazin-3-yl]methyl}phenyl)carbamate] | < 100 |
| Cn1cc(-n2ccc(=O)c(Cc3cccc(NC(=O)OCCC4CCNCC4)c3)n2)cn1 [Example 624, 2-piperidin-4-ylethyl (3-{[1-(1-methyl-1H-pyrazol-4-yl)-4-oxo-1,4-dihydropyridazin-3-yl]methyl}phenyl)carbamate] | < 100 |
| Cn1cc(-n2ccc(=O)c(Cc3cccc(NC(=O)OCCN4CCNCC4)c3)n2)cn1 [Example 625, 2-piperazin-1-ylethyl (3-{[1-(1-methyl-1H-pyrazol-4-yl)-4-oxo-1,4-dihydropyridazin-3-yl]methyl}phenyl)carbmate] | < 100 |
